The text below walks through data of patent US10851064B2, “ACSS2 inhibitors and methods of use thereof” (METABOMED LTD., priority 2017, dated 2020).

Where only a bound is given, the exact number is not on record here.

The term IC50 denotes the concentration at which inhibition is half-maximal.
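Further: Cell-free human ACSS2 enzyme reaction with acetate, CoA and ATP, 90 min at 37 C, coupled to pyrophosphatase, phosphate release detected by Biomol Green absorbance at 620 nm.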

ACSS2, sequence (Q9NR19 whole entry): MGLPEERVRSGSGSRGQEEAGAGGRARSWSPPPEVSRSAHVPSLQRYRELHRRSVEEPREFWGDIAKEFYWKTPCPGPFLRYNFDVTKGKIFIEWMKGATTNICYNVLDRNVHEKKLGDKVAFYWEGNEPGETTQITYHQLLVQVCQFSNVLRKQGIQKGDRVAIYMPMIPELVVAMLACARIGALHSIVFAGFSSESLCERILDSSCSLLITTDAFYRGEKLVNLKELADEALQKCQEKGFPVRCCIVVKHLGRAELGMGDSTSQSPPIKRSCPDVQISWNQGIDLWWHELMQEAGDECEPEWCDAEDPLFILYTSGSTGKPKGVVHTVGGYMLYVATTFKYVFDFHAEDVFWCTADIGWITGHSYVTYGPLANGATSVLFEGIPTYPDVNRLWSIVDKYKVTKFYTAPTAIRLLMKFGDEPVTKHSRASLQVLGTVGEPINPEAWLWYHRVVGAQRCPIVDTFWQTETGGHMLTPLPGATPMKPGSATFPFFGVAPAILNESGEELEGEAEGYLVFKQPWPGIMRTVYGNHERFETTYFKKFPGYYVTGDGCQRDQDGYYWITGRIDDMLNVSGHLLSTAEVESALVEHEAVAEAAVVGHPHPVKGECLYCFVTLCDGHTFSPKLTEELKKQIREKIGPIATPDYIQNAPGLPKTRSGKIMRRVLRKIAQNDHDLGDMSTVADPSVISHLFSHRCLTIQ

This experiment has as its target ACSS2 (Homo sapiens, UniProt Q9NR19). Nature of the experiment: biochemical.
Protocol: ACSS2 Cell-Free Activity Assay (Cell-Free IC50)
The assay is based on a coupling reaction with Pyrophosphatase: ACSS2 is converting ATP+CoA+Acetate=>AMP+pyrophosphate+Acetyl-CoA (Ac-CoA). Pyrophosphatase converts pyrophosphate, a product of the ACSS2 reaction, to phosphate which can be detected by measuring the absorbance at 620 nm after incubation with the Biomol green reagent (Enzo life Science, BML-AK111).
Cell-free IC50 Determination:
At the end of the reaction, Biomol Green was added for 30 minutes at RT and the activity was measured by reading the absorbance at 620 nm.
With `CC1=NN(c2ccccn2)C(=O)C1C(=O)Nc1ccccc1` (stereo not shown) [compound 192, 5-hydroxy-3-methyl-N-phenyl-1-(pyridin-2-yl)-1H-pyrazole-4-carboxamide], the IC50 was more than 100000 nM. With `COc1ccc(N2N=C(C)C(C(=O)Nc3cccc(C(C)(F)F)c3)C2=O)cc1-c1ccncc1` (stereo not shown) [compound 431], the IC50 lay within 0.01 to 6 nM.

`CC1=NN(c2ccc(C(F)(F)F)cc2)C(=O)C1C(=O)Nc1cccc(-c2ncco2)c1` (stereo not shown) [compound 270] had an IC50 of 100 to 1000 nM. As to `CC1=NN(c2ccccc2)C(=O)C1C(=O)Nc1ccc2[nH]cnc2c1` (stereo not shown) [compound 278], the 50% inhibitory concentration (IC50) fell in the range of 1000 to 100000 nM. For the molecule `CC1=NN(c2ccccc2)C(=O)C1C(=O)Nc1cccc(CC(F)(F)F)c1` (stereo not shown) [compound 161, 3-methyl-5-oxo-1-phenyl-N-(3-(2,2,2-trifluoroethyl)phenyl)-4,5-dihydro-1H-pyrazole-4-carboxamide], the 50% inhibitory concentration (IC50) was 6 to 100 nM. Take `CCc1cccc(NC(=O)C2C(=O)N(c3ccccc3)N=C2C(C)C)c1` (stereo not shown) [compound 128, N-(3-ethylphenyl)-3-isopropyl-5-oxo-1-phenyl-4,5-dihydro-1H-pyrazole-4-carboxamide]: the IC50 lay within 1000 to 100000 nM. Consider `CC1=NN(c2ccc(OC(F)F)cc2)C(=O)C1C(=O)Nc1cccc(C(C)(F)C(C)C)c1` (stereo not shown) [compound 409], for which the IC50 is 100 to 1000 nM. Turning to `CC1=NN(c2ccc(S(=O)(=O)N(C)C)cc2)C(=O)C1C(=O)Nc1ccccc1` (stereo not shown) [compound 110, 1-(4-(N,N-dimethylsulfamoyl)phenyl)-3-methyl-5-oxo-N-phenyl-4,5-dihydro-1H-pyrazole-4-carboxamide], the half-maximal inhibitory concentration (IC50) lay within 100 to 1000 nM. In the case of `CC1=NN(c2ccccc2)C(=O)C1C(=O)Nc1cccc(-c2ccncc2)c1` (stereo not shown) [compound 104, 3-methyl-5-oxo-1-phenyl-N-(3-(pyridin-4-yl)phenyl)-4,5-dihydro-1H-pyrazole-4-carboxamide], the IC50 fell in the range of 1000 to 100000 nM. Molecule `CNC(=O)C1C(=O)N(c2ccccc2)N=C1C` (stereo not shown) [compound 199, N,3-dimethyl-5-oxo-1-phenyl-4,5-dihydro-1H-pyrazole-4-carboxamide] returned an IC50 of more than 100000 nM. With `CCc1cccc(NC(=O)C2C(=O)N(c3ccc([N+](=O)[O-])cc3)N=C2C)c1` (stereo not shown) [compound 153, N-(3-ethylphenyl)-3-methyl-1-(4-nitrophenyl)-5-oxo-4,5-dihydro-1H-pyrazole-4-carboxamide], the IC50 was in the range of 100 to 1000 nM. `CC1=NN(c2ccccc2)C(=O)C1C(=O)Nc1cccc(C(=O)C(F)(F)F)c1` (stereo not shown) [compound 152, 3-methyl-5-oxo-1-phenyl-N-(3-(2,2,2-trifluoroacetyl)phenyl)-4,5-dihydro-1H-pyrazole-4-carboxamide] displayed a half-inhibitory concentration (IC50) of 1000 to 100000 nM. `CC1=NN(c2cccnc2)C(=O)C1C(=O)Nc1ccccc1` (stereo not shown) [compound 195, 3-methyl-5-oxo-N-phenyl-1-(pyridin-3-yl)-4,5-dihydro-1H-pyrazole-4-carboxamide] returned an IC50 of more than 100000 nM. For `CC1=NN(c2ccc(S(=O)(=O)N(C)C)cc2)C(=O)C1C(=O)Nc1cccc(-c2cnccn2)c1` (stereo not shown) [compound 262], the IC50 is 6 to 100 nM.

Take `CC1=NN(c2ccccc2)C(=O)C1C(=O)Nc1cccc(S(=O)(=O)N(C)C)c1` (stereo not shown) [compound 139, N-(3-(N,N-dimethylsulfamoyl)phenyl)-3-methyl-5-oxo-1-phenyl-4,5-dihydro-1H-pyrazole-4-carboxamide]: the half-inhibitory concentration (IC50) lay within 100 to 1000 nM.

Take `CC1=NN(c2ccncc2)C(=O)C1C(=O)Nc1cccc(-c2ncc[nH]2)c1` (stereo not shown) [compound 233]: the IC50 was 100 to 1000 nM. On to `CC(=O)c1ccc(NC(=O)C2C(=O)N(c3ccccc3)N=C2C)cc1` (stereo not shown) [compound 203, N-(4-acetylphenyl)-3-methyl-5-oxo-1-phenyl-4,5-dihydro-1H-pyrazole-4-carboxamide], for which the half-inhibitory concentration (IC50) lay in the range of 1000 to 100000 nM. Regarding `CCc1cccc(NC(=O)C2C(=O)N(c3ccc(C(F)(F)F)cc3)N=C2C)c1` (stereo not shown) [compound 127, N-(3-ethylphenyl)-3-methyl-5-oxo-1-(4-(trifluoromethyl)phenyl)-4,5-dihydro-1H-pyrazole-4-carboxamide], the 50% inhibitory concentration (IC50) was in the range of 6 to 100 nM. In turn, `CC1=NN(c2ccccc2)C(=O)C1C(=O)NC1CCOC1` (stereo not shown) [compound 106, 3-methyl-5-oxo-1-phenyl-N-(tetrahydrofuran-3-yl)-4,5-dihydro-1H-pyrazole-4-carboxamide] had an IC50 of more than 100000 nM. On to `CC1=NN(c2ccc(OC3CCC3)cc2)C(=O)C1C(=O)Nc1cccc(C(C)(F)F)c1` (stereo not shown) [compound 440], for which the half-maximal inhibitory concentration (IC50) was 0.01 to 6 nM. As for `CC1=NN(c2ccc(OC(F)F)cc2)C(=O)C1C(=O)Nc1cccc2cc[nH]c12` (stereo not shown) [compound 346], the figure is 100 to 1000 nM; as for `CC1=NN(c2ccc(OC(F)F)cc2F)C(=O)C1C(=O)Nc1cccc(C(C)(F)F)c1` (stereo not shown) [compound 456], 0.01 to 6 nM. As for `CC1=NN(c2cc(Cc3ccc(Cl)cc3)cc(-c3ccccc3)c2)C(=O)C1C(=O)Nc1cccc(C(C)(F)F)c1` (stereo not shown) [compound 376], the half-maximal inhibitory concentration (IC50) was 6 to 100 nM. For the molecule `COc1cccc(NC(=O)C2C(=O)N(c3ccccc3)N=C2C)c1` (stereo not shown) [compound 211, N-(3-methoxyphenyl)-3-methyl-5-oxo-1-phenyl-4,5-dihydro-1H-pyrazole-4-carboxamide], the concentration for half-maximal inhibition (IC50) was 6 to 100 nM.

The molecule `CC1=NN(c2ccc(OC3COC3)cc2)C(=O)C1C(=O)Nc1cccc(C(C)(F)F)c1` (stereo not shown) [compound 439] yielded an IC50 of 0.01 to 6 nM. As for `CCc1cccc(NC(=O)C2C(=O)N(c3ccncc3)N=C2C)c1` (stereo not shown) [compound 125, N-(3-ethylphenyl)-3-methyl-5-oxo-1-(pyridin-4-yl)-4,5-dihydro-1H-pyrazole-4-carboxamide], the figure is 100 to 1000 nM. For the molecule `CC1=NN(c2ccccc2)C(=O)C1C(=O)Nc1cscc1C` (stereo not shown) [compound 283], the half-inhibitory concentration (IC50) is 100 to 1000 nM.

Molecule `CCc1cc(NC(=O)C2C(=O)N(c3ccccc3)N=C2C)cs1` (stereo not shown) [compound 284] came in with an IC50 of 100 to 1000 nM.

With `CCc1ccsc1NC(=O)C1C(=O)N(c2ccccc2)N=C1C` (stereo not shown) [compound 288], the concentration for half-maximal inhibition (IC50) was in the range of 100 to 1000 nM. The molecule `CCC(F)(F)c1cccc(NC(=O)C2C(=O)N(c3ccc(OC(F)F)cn3)N=C2C)c1` (stereo not shown) [compound 383] returned a half-maximal inhibitory concentration (IC50) of 0.01 to 6 nM. Turning to `CC1=NN(c2ccc(OC(F)F)c(-c3cccnc3)c2)C(=O)C1C(=O)Nc1cccc(C(C)(F)F)c1` (stereo not shown) [compound 455], the IC50 lay in the range of 0.01 to 6 nM. Turning to `COc1ccc(N2N=C(C)C(C(=O)Nc3cccc(C(C)(F)F)c3)C2=O)cc1-c1nnc(C)[nH]1` (stereo not shown) [compound 385], the half-maximal inhibitory concentration (IC50) is 6 to 100 nM.

`CC1=NN(c2cccc(Br)c2)C(=O)C1C(=O)Nc1cccc(C(C)(F)F)c1` (stereo not shown) [compound 404]: the IC50 lay in the range of 0.01 to 6 nM. For the molecule `CC1=NN(c2ccc3ccccc3c2)C(=O)C1C(=O)Nc1ccccc1` (stereo not shown) [compound 198, 5-hydroxy-3-methyl-1-(naphthalen-2-yl)-N-phenyl-1H-pyrazole-4-carboxamide], the IC50 fell in the range of 1000 to 100000 nM. `CC1=NN(c2ccccc2)C(=O)C1C(=O)Nc1cccc(-c2nnc[nH]2)c1` (stereo not shown) [compound 174] gave an IC50 of 100 to 1000 nM. As for `CC1=NN(c2ccncc2)C(=O)C1C(=O)Nc1cccc(-c2ccco2)c1` (stereo not shown) [compound 240], the figure is 6 to 100 nM; as for `CC(=O)NS(=O)(=O)c1cc(N2N=C(C)C(C(=O)Nc3cccc(-c4ccco4)c3)C2=O)ccc1OC(F)(F)F` (stereo not shown) [compound 299], 6 to 100 nM.

For the molecule `CC1=NN(c2ccc(S(=O)(=O)N(C)C)cc2)C(=O)C1C(=O)Nc1cccc(-c2ccco2)c1` (stereo not shown) [compound 160, 1-(4-(N,N-dimethylsulfamoyl)phenyl)-N-(3-(furan-2-yl)phenyl)-3-methyl-5-oxo-4,5-dihydro-1H-pyrazole-4-carboxamide], the IC50 lay in the range of 6 to 100 nM. Then `CC1=NN(c2ccc(Cc3ccccc3)c(-c3ccccc3)c2)C(=O)C1C(=O)Nc1cccc(C(C)(F)F)c1` (stereo not shown) [compound 375], with 0.01 to 6 nM; and `CC1=NN(c2ccc(S(=O)(=O)N(C)C)cc2)C(=O)C1C(=O)Nc1cccc(-c2ncco2)c1` (stereo not shown) [compound 254], with 100 to 1000 nM; and `CCc1cccc(NC(=O)C2C(=O)N(c3ccccc3)N=C2c2ccncc2)c1` (stereo not shown) [compound 137, N-(3-ethylphenyl)-5-oxo-1-phenyl-3-(pyridin-4-yl)-4,5-dihydro-1H-pyrazole-4-carboxamide], with 1000 to 100000 nM.

On to `CC1=NN(c2ccccc2)C(=O)C1C(=O)Nc1cccc(C(C)C)c1` (stereo not shown) [compound 100, N-(3-isopropylphenyl)-3-methyl-5-oxo-1-phenyl-4,5-dihydro-1H-pyrazole-4-carboxamide], for which the IC50 is 100 to 1000 nM. `COc1ccc(NC(=O)C2C(=O)N(c3ccccc3)N=C2C)cc1` (stereo not shown) [compound 188, N-(4-methoxyphenyl)-3-methyl-5-oxo-1-phenyl-4,5-dihydro-1H-pyrazole-4-carboxamide] gave a 50% inhibitory concentration (IC50) of 1000 to 100000 nM. As for `CCCOc1ccc(N2N=C(C)C(C(=O)Nc3cccc(C(C)(F)F)c3)C2=O)cc1` (stereo not shown) [compound 448], the IC50 was in the range of 0.01 to 6 nM. Consider `CCc1cscc1NC(=O)C1C(=O)N(c2ccccc2)N=C1C` (stereo not shown) [compound 290], for which the half-maximal inhibitory concentration (IC50) lay within 100 to 1000 nM.

Turning to `CC1=NN(c2ccccc2)C(=O)C1C(=O)NC(=O)c1ccccc1` (stereo not shown) [compound 207, N-benzoyl-3-methyl-5-oxo-1-phenyl-4,5-dihydro-1H-pyrazole-4-carboxamide], the IC50 was 1000 to 100000 nM. As for `CC1=NN(c2ccc(OC(F)F)cc2)C(=O)C1NC(=O)c1cccc(C(C)(F)F)c1` (stereo not shown) [compound 341], the half-maximal inhibitory concentration (IC50) fell in the range of 100 to 1000 nM. `CCCn1ccc2ccc(N3N=C(C)C(C(=O)Nc4cccc(C(C)(F)F)c4)C3=O)cc21` (stereo not shown) [compound 363]: the concentration for half-maximal inhibition (IC50) was 0.01 to 6 nM.

For the molecule `CC1=NN(c2ccccc2)C(=O)C1C(=O)N(C)c1ccccc1` (stereo not shown) [compound 204, N,3-dimethyl-5-oxo-N,1-diphenyl-4,5-dihydro-1H-pyrazole-4-carboxamide], the IC50 was more than 100000 nM. Regarding `CC1=NN(c2ccccc2)C(=O)C1C(=O)Nc1cccnc1` (stereo not shown) [compound 191, 3-methyl-5-oxo-1-phenyl-N-(pyridin-3-yl)-4,5-dihydro-1H-pyrazole-4-carboxamide], the concentration for half-maximal inhibition (IC50) was in the range of 1000 to 100000 nM. As for `CC1=NN(C2CCS(=O)(=O)C2)C(=O)C1C(=O)Nc1ccccc1` (stereo not shown) [compound 202, 1-(1,1-dioxidotetrahydrothiophen-3-yl)-3-methyl-5-oxo-N-phenyl-4,5-dihydro-1H-pyrazole-4-carboxamide], the figure is more than 100000 nM; as for `CC1=NN(c2cccc(CN)c2)C(=O)C1C(=O)Nc1cccc(C(C)(F)F)c1` (stereo not shown) [compound 335], 6 to 100 nM.
